These results are taken from patent publication US4853230A, “Pharmaceutical formulations of acid labile substances for oral use” (priority 1986, dated 1989).

The series in a line: Rate of degradation/transformation of compounds in solution (half-life for the transformation to the active moiety) at pH 2 and 7. Type of series: physicochemical. Particulars: water solution. As for the experimental part: Rate of degradation/transformation of compounds
Half-life (mintues) for the
transformation to the active moiety
Also at neutral pH-values the degradation reaction proceeds rapidly, e.g. at pH=7 the half-life of degradation is between 10 minutes and 65 hours while at higher pH-values the stability in solution for most compounds is much better. The stability profile is similar in solid phase. The degradation is catalyzed by acid reacting substances. The acid labile compounds are stabilized in mixtures with alkaline reacting substances.

Take `COC(=O)c1cc2nc([S+]([O-])Cc3ncccc3C)[nH]c2cc1C` (centres unmarked): the half-life is, setting by setting: (at pH = 2) 11 min; (at pH = 7) 150 min.

`Cc1cnc(C[S+]([O-])c2nc3cc(C)ccc3[nH]2)c(C)c1` (centres unmarked) registered a half-life (at pH = 2) of 5.4 min and a half-life (at pH = 7) of 1700 min.

On to `COc1ccnc(C[S+]([O-])c2nc3cc(C(F)(F)F)ccc3[nH]2)c1` (centres unmarked), for which the half-life is, setting by setting: (at pH = 2) 1.9 min; (at pH = 7) 122 min.

Compound `COc1ccnc(C[S+]([O-])c2nc3cc(C(F)(F)F)ccc3[nH]2)c1C` (centres unmarked) yielded a half-life (at pH = 2) of 2 min and a half-life (at pH = 7) of 8.8 min.

For the compound `CCc1cnc(C[S+]([O-])c2nc3cc(OC)ccc3[nH]2)cc1Oc1ccccc1` (centres unmarked), the half-life reads like this: (at pH = 2) 3.7 min; (at pH = 7) 1620 min.

In turn, `CCc1ccc2[nH]c([S+]([O-])Cc3nc4ccccc4n3C)nc2c1` (centres unmarked) returned a half-life (at pH = 2) of 33 min.
